Like-named read-outs stand apart in the source and are kept apart here.
Key:
[1] = biological target: T1, HCV NS3 helicase NS3h_1b(con1) (Hepatitis C virus genotype 1b, UniProt Q9WMX2); experiment: biochemical; assay type: biochemical, hepatitis C virus genotype 1b(con1)
T1 construct: truncated C-terminally His-tagged NS3 proteins lacking the N-terminal protease, called NS3h; His-tag (C); made in house
Excerpt: All oligonucleotides were purchased from Integrated DNA Technologies (IDT, Coralville, Iowa). The partially duplex DNA substrates used in MBHAs consisted of a helicase substrate forming 25 base pairs and consists of a 45-mer bottom strand 5′-GCTCCCCGTTCATCGATTGGGGAGC(T)20-3′ (SEQ ID NO:1) and the 25-mer HCV top strand 5′-Cy5-GCTCCCCAATCGATGAACGGGGAGC-IBRQ-3′ (SEQ ID NO:2). The 19 base pair RNA substrate used in MBHAs was composed of a 39 nucleotide long bottom strand 5′-AGU GCC UUG ACG AUA CAG C(U)20-3′ (SEQ ID NO:3) and the 24 nucleotide long top strand 5′-Tye^665-AGUGCGCUGUAUCGUCAAGGCACU-IBRQSp-3′ (SEQ ID NO:4). Underlined areas denote hairpin-forming regions. DNA and RNA substrates were annealed and purified as described previously (Belon & Frick (2008) BioTechniques 45:433-40, 442).
The cloning, expression, and purification of His-tagged recombinant HCV NS3 protein have been described previously (Lam, et al. (20030 J. Virol. 77:3950-61; Heck, et al. (2008) Antimicrob. Agents Chemother. 52:1901-11; Frick et al. (2010) Methods Mol. Biol. 587:223-233; Belon, et al. & Frick (2009) J. Mol. Biol. 388:851-864).
All molecular beacon-based helicase assays (MBHAs) were performed according to known methods (Belon & Frick (2008) supra; Belon & Frick (2009) supra). […] In each flat, black 384-well plate, 56 compounds were tested, in triplicate, along with three negative controls (DMSO only), three positive controls (500 nM dT20), and two wells with no enzyme. Fluorescence was read before ATP (F0) addition and 30 minutes after ATP was added to 1 mM (F30) using a Tecan Infinite M200 fluorescence microplate reader with excitation and emission wavelengths set to 643 and 670 nm, respectively. Percent inhibition was calculated with equation 1, and compound interference in the MBHA was calculated with equation 2.
To monitor helicase reaction kinetics and to calculate IC50 values, MBHAs were performed in 60 μL in white ½ area 96-well plates and measured in a Thermo Varioscan Multimode reader (Thermo Scientific) using the 643 nm excitation wavelength and 667 emission wavelengths. Reactions were again performed by first incubating all components except for ATP for two minutes, then initiated by injecting in 1/10 volume of ATP such that the final concentration of all components was as noted above. Conditions were as described above except that 5% v/v DMSO was present in each assay. Initial reaction velocities were calculated by fitting first-order decay equation to data obtained after ATP addition and calculating an initial velocity form the resulting amplitude and rate constant.
[formula] where, v0 is the velocity observed in DMSO-only controls inhibition, h is the Hillslope coefficient, [I] is the concentration of test compound.

Huh-7.5 cells = experiment: Cell viability assay ([…]-GLO); assay type: cell-based, human; details: for Cell viability (% viable): 10 μM compound, triplicate, average ± SD
Description: To assess compound toxicity toward Huh-7.5 cells, cells were plated and treated as above and cell viability was assessed using the […]-GLO luminescent cell viability kit (PROMEGA) following the manufacturer's instructions. Briefly, at the end of a 72 hour incubation period, the medium was aspirated and the cells were washed with 1×PBS, then an equal volume of growth medium and […]-GLO reagent was added and the lysis was initiated by mixing on an orbital shaker. The plate was incubated at 23° C. for 30 minutes and the luciferase activity was measured for 1 second using the FLUOSTAR Omega microplate reader (BMG Labtech).

[2] = biological target: T2, E. coli SSB-Cy5-dT15 complex (Escherichia coli, UniProt P0AGE0); experiment: Escherichia coli SSB Cy5-dT15 binding assay (fluorescence polarization); details: for inhibition at 100 µM: read-out: SSB % Displaced @ 100 μM; for EC50: read-out: SSB EC50; for IC50: disruption of Cy5-dT15-SSB complex, read-out: Cy5-dT15-SSB Binding IC50
T2 construct: purchased Promega
T2 sequence (P0AGE0 2-178, one chain of several): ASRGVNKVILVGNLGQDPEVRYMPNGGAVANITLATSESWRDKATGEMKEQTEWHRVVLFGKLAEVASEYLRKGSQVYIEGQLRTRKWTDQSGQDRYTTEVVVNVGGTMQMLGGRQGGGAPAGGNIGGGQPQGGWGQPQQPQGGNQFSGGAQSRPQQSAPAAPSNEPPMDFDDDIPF
Description: The Escherichia coli SSB assay was performed in a total volume of 20.2 μl in 384-well, flat-bottom, low volume, black microplates (Greiner Bio-One). First, 20 μl of a assay solution (5 nM Cy5-[…]-3′ (Cy5-dT15, SEQ ID NO:5), 20 nM E. coli SSB (Promega), 25 mM MOPS, pH 7.5, 1.25 mM MgCl2, 0.0025 mg/ml BSA, 0.005% (v/v) TWEEN 20 and 0.025 mM DTT) was dispensed in each well, then 0.2 μl of dimethylsulfoxide (DMSO) or compound dissolved in DMSO was added by pin transfer, such that the final concentration of DMSO was 1% (v/v) in each assay.
For IC50 determination, assays were performed with 60 μl total volume in black flat bottomed 384-well microplates (Corning). First, 3.0 μl of DMSO or compound dissolved in DMSO was added, such that the final concentration of DMSO was 5% (v/v) in each assay. Then 57 μl of a assay solution (5 nM Cy5-dT15, 20 nM SSB, 25 mM MOPS, pH 7.5, 1.25 mM MgCl2, 0.0025 mg/ml BSA, 0.005% (v/v) TWEEN 20 and 0.025 mM DTT) was dispensed in each well. Polarization was monitored with a TECAN Infinite M1000 PRO multi-mode microplate reader by exciting at 635 nm (5 nm bandwidth) and measuring total fluorescence intensity, parallel and perpendicular polarized light at 667 nm (20 nm bandwidth).

MBHA DNA substrate = experiment: Modified FID assay, SYBR Green I; assay type: binding; details: for DNA binding (%): SYBR Green I-FID, average (±SD) percent bound at 100 μM
Description: A modified FID assay, in which ethidium bromide was replaced with SYBR Green I (Invitrogen), was used to estimate a compounds affinity for the MBHA substrate. Reactions were performed as described above except that the DNA substrate was present at 0.32 μM, ethidium bromide was absent, and SYBER Green was present at (0.68 μM). Data were normalized as described above and fit to concentration-response equation using GraphPad Prism software. Titrations with each compound were performed in triplicate, and EC50 values from three independent titrations are reported ±standard deviations.

[3] = genotype 1b (con1), read-out: Target Potency MBHA (IC50 avg., μM) 1b (con1)
[4] = MBHA, DNA unwinding, mean ± SD of three titrations, read-out: Helicase IC50
[5] = standard HCV helicase MBHA (Table 9), read-out: DNA Unwinding IC50
[6] = SYBR Green, read-out: FID (SG) EC50 (converted)
[7] = DNA-based MBHA, genotype 1b, read-out: DNA Helicase NS3h_1b IC50 (μM) ± SD

T1 sequence (Q9WMX2 1192-1657): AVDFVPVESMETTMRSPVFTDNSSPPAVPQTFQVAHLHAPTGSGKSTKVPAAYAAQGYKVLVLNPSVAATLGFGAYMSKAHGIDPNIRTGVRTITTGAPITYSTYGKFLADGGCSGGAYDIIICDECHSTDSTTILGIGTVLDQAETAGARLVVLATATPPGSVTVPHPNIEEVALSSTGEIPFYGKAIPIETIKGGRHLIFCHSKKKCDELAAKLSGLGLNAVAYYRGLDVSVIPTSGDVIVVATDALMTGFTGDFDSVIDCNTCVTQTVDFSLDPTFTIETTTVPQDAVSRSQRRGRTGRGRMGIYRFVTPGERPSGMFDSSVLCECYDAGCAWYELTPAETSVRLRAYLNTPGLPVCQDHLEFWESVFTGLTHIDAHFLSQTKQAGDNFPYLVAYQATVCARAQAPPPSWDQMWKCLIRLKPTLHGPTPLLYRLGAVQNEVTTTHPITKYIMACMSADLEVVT

Cc1ccc2nc(-c3ccc4nc(-c5ccc(NC(=O)c6ccc7ncoc7c6)cc5)sc4c3)sc2c1S(=O)(=O)O
IC50 [1, 3]: 3.6 ± 1 µM
Cell Viability (% @ 10 μM) (Huh-7.5 cells): 114 ± 13%

Cc1ccc2nc(-c3ccc4nc(-c5ccc(NS(=O)(=O)c6ccc(C(F)(F)F)cc6)cc5)sc4c3)sc2c1S(=O)(=O)O
IC50 [1, 3]: 32 ± 16 µM
Cell Viability (% @ 10 μM) (Huh-7.5 cells): 101 ± 6%

Cc1ccc2nc(-c3ccc(NC(=O)c4ccc(C(F)(F)F)cc4)cc3)sc2c1S(=O)(=O)O
IC50 [1, 3]: > 100 µM
Cell Viability (% @ 10 μM) (Huh-7.5 cells): 102 ± 9%

Cc1ccc2nc(-c3ccc(NC(=O)c4ccc(N)cc4)cc3)sc2c1S(=O)(=O)O
IC50 [1, 3]: 69 ± 26 µM
Cell Viability (% @ 10 μM) (Huh-7.5 cells): 103 ± 6%

Cc1ccc2nc(-c3ccc(NC(=O)c4ccc(NS(=O)(=O)c5ccccc5)cc4)cc3)sc2c1S(=O)(=O)O
IC50 [1, 3]: > 100 µM
Cell Viability (% @ 10 μM) (Huh-7.5 cells): 119 ± 11%
inhibition at 100 µM [2]: 61%
EC50 [2]: > 100 µM

Cc1ccc2nc(-c3ccc(NC(=S)Nc4ccccc4Br)cc3)sc2c1
IC50 [1, 3]: > 100 µM
Cell Viability (% @ 10 μM) (Huh-7.5 cells): 39 ± 10%

Cc1ccc2nc(-c3ccc4nc(NC(=O)c5ccc6ncoc6c5)sc4c3)sc2c1
IC50 [1, 3]: 60 ± 6.1 µM
Cell Viability (% @ 10 μM) (Huh-7.5 cells): 28 ± 5%

Cc1ccc2nc(-c3ccc4nc(-c5ccc(NC(=O)c6ccccc6)cc5)sc4c3)sc2c1S(=O)(=O)O [Compound 5, 2′-(4-benzamidophenyl)-6-methyl-[2,6′-bibenzo[d]thiazole]-7-sulfonic acid]
IC50 [1, 4]: 11 ± 1.5 µM
IC50 [1, 3]: 10.7 ± 1.5 µM
IC50 [1, 5]: 11 ± 2 µM
Cell Viability (% @ 10 μM) (Huh-7.5 cells): 88 ± 2%
Cell viability (% viable) (Huh-7.5 cells): 88 ± 2%
IC50 [2]: 4 ± 1 µM
inhibition at 100 µM [2]: 91%
EC50 [2]: 4 ± 1 µM
DNA binding (%) (MBHA DNA substrate): 31 ± 13%
FID (SG) % Displaced @ 100 μM (MBHA DNA substrate; SYBR Green): 31 ± 13%
EC50 (MBHA DNA substrate; [6]): > 100 µM

Cc1ccc2nc(-c3ccc4nc(-c5ccc(NC(=O)c6ccc(N)cc6)cc5)sc4c3)sc2c1S(=O)(=O)O [Compound 6, 2′-(4-(4-aminobenzamido)phenyl)-6-methyl-[2,6′-bibenzo[d]thiazole]-7-sulfonic acid]
IC50 [1, 7]: 10 ± 2.4 µM
IC50 [1, 4]: 10 ± 2.4 µM
IC50 [1, 3]: 10.3 ± 2.4 µM
IC50 [1, 5]: 10 ± 2 µM
Cell Viability (% @ 10 μM) (Huh-7.5 cells): 93 ± 4%
Cell viability (% viable) (Huh-7.5 cells): 93 ± 4%
IC50 [2]: 2 ± 1 µM
inhibition at 100 µM [2]: 99%
EC50 [2]: 3 ± 1 µM
DNA binding (%) (MBHA DNA substrate): 63 ± 15%
FID (SG) % Displaced @ 100 μM (MBHA DNA substrate; SYBR Green): 63 ± 15%
EC50 (MBHA DNA substrate; [6]): 55 ± 13 µM

Cc1ccc2nc(-c3ccc4nc(-c5ccc(NC(=O)c6cccnc6)cc5)sc4c3)sc2c1S(=O)(=O)O [Compound 31, 6-methyl-2′-(4-(nicotinamido)phenyl)-[2,6′-bibenzo[d]thiazole]-7-sulfonic acid]
Cell Viability (% @ 10 μM) (Huh-7.5 cells): 113 ± 6%
Cell viability (% viable) (Huh-7.5 cells): 113 ± 6%
IC50 [2]: 173 ± 354 µM
inhibition at 100 µM [2]: 48%
EC50 [2]: > 100 µM
DNA binding (%) (MBHA DNA substrate): 15 ± 10%
FID (SG) % Displaced @ 100 μM (MBHA DNA substrate; SYBR Green): 15 ± 10%
EC50 (MBHA DNA substrate; [6]): > 100 µM

Cc1ccc2nc(-c3ccc4nc(-c5ccc(NC(=O)c6ccncc6)cc5)sc4c3)sc2c1S(=O)(=O)O [Compound 32, 2′-(4-(isonicotinamido)phenyl)-6-methyl-[2,6′-bibenzo[d]thiazole]-7-sulfonic acid]
Cell Viability (% @ 10 μM) (Huh-7.5 cells): 117 ± 5%
Cell viability (% viable) (Huh-7.5 cells): 117 ± 5%
IC50 [2]: 55 ± 20 µM
inhibition at 100 µM [2]: 63%
EC50 [2]: 55 µM
DNA binding (%) (MBHA DNA substrate): 19 ± 7%
FID (SG) % Displaced @ 100 μM (MBHA DNA substrate; SYBR Green): 19 ± 7%
EC50 (MBHA DNA substrate; [6]): > 100 µM

Cc1ccc2nc(-c3ccc4nc(-c5ccc(N)cc5)sc4c3)sc2c1S(=O)(=O)O [Compound P2a, 2′-(4-aminophenyl)-6-methyl-[2,6′-bibenzo[d]thiazole]-7-sulfonic acid]
IC50 [1, 7]: 45 ± 14 µM
IC50 [1, 4]: 49 µM
IC50 [1, 5]: 6 ± 2 µM
times lower affinity towards NS3 than P4 ([1]; versus P4): 10-20 times
IC50 [2]: 2 µM

Cc1ccc2nc(-c3ccc4nc(-c5ccc6nc(-c7ccc(N)cc7)sc6c5)sc4c3)sc2c1S(=O)(=O)O [Compound P3, 2″-(4-aminophenyl)-6-methyl-[2,6′:2′,6″-terbenzo[d]thiazole]-7-sulfonic acid]
IC50 [1, 4]: 0.9 ± 0.1 µM

Cc1ccc2nc(-c3ccc4nc(-c5ccc6nc(-c7ccc8nc(-c9ccc(N)cc9)sc8c7)sc6c5)sc4c3)sc2c1S(=O)(=O)O [Compound P4, 2′″-(4-aminophenyl)-6-methyl-[2,6′:2″,6′″-quaterbenzo[d]thiazole]-7-sulfonic acid]
IC50 [1, 7]: 2 ± 0.1 µM
IC50 [1, 4]: 0.8 µM
fold weaker DNA binding than potency in MBHA (MBHA DNA substrate; DNA binding versus MBHA IC50): 17 fold
EC50 (MBHA DNA substrate; FID, mean ± SD, read-out: DNA Binding (SYBR Green I) EC50): 15 ± 8 µM

— patent US9464064B2, “HCV helicase inhibitors and methods of use thereof” (University of Kansas, priority 2011, dated 2016)
